Assay [1] has as its target T1, S100A9 (Homo sapiens, UniProt P06702).
T1 construct: native S100A9 expressed in Escherichia coli
T1 sequence (P06702 1-114): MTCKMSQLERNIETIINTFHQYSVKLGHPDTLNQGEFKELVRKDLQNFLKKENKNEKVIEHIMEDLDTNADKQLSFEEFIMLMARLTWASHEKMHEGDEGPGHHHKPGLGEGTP
Description: intrinsic Trp88 fluorescence titration; ANS fluorescence titration gave Kd […]; ThT/AFM amyloid inhibition. The format is binding.

For assay [2], the target named is T1, S100A9. The description is as above. The format is binding. The source holds these as a separate data set.

We go through 2 substances from article PMC8289188, “Polyoxometalates as Effective Nano-inhibitors of Amyloid Aggregation of Pro-inflammatory S100A9 Protein Involved in Neurodegenerative Diseases” (ACS Applied Materials & Interfaces, 2021).

Read-outs that look alike come from different tables or passages of the source.

Nb10: the affinity on S100A9 [1], expressed as Kd, was 2860 ± 390 nM. For the substance TiNb9, the dissociation constant Kd – broadly, the equilibrium constant for the complex coming apart – at S100A9 [2] is 2480 ± 200 nM.
